The values that follow come from US20210078985A1, “COMPOUND, PREPARATION METHOD THEREFOR, AND USE THEREOF” (MEDSPRING INTERNATIONAL LIMITED, priority 2018, published 2021).

How the values of series [1] were obtained:
Solubility of compounds was determined according to the method established in the general instructions of Part II of Pharmacopoeia 2010 edition. […] The dissolution was observed within 30 minutes.
(§1) The dissolution was then observed within 30 minutes.
as §1

The target in series [2] is T1, CHO membranes expressing CCR4 (Homo sapiens, UniProt P51679).
T1 construct: expressed in transfected cells; host or cells: CHO cell membranes
T1 sequence (P51679 1-360): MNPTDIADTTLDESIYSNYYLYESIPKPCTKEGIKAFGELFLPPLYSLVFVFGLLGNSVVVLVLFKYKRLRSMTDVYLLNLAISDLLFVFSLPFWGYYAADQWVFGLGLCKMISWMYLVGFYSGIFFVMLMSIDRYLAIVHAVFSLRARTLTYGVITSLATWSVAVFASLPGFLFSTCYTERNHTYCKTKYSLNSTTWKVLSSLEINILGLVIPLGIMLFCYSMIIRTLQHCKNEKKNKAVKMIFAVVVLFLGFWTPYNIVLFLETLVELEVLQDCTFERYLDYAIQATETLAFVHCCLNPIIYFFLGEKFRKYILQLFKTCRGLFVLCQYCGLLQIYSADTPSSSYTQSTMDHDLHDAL
In words: In vitro CCR4 antagonistic activity, competitive [35S]-GTPγS test. The series is classed as biochemical. The protocol: The potency of antagonists was tested by a competitive test of [35S]-GTPγS. Briefly, CHO membranes expressing CCR4 were homogenized through a 23 G needle. These membranes were then attached to WGA-coated Leadseeker SPA beads in a testing buffer (20 mM HEPES, 10 mM MgCl2, 100 mM NaCl, 0.05% BSA, 40 ug/ml saponin, adjusted to pH 7.4 with KOH 5M) to produce 3 μg/well final […] (FAC) membrane and 250 μg/well FAC bead solution. After 60 minutes of pre-coupling on ice, GDP was added to obtain 4.4 uM FAC. Then [35S]-GTPS, which was prepared in the testing buffer, was added into the bead/membrane solution to thereby obtain 0.33 nM FAC. […] The suspension of beads/membranes/[35S]-GTPγS/agonist was distributed into a white Greiner polypropylene 384-pore plate (45 μL/well), which contained 0.5 μl of compound. The final testing solution (45.5 μL) was sealed, centrifuged and incubated at room temperature for 3-6 hours. Then, the plate was read with Viewlux and the luminescence was plotted as the percentage of the maximum inhibitory response induced by IC100 standard antagonist.

Another series relates to Caco-2 cells. Briefly: In vitro membrane permeability test (Caco-2 monolayer). The protocol: Caco-2 cell model is a human colonic adenocarcinoma cell line having a structure and function similar to differentiated intestinal epithelial cells. It has microvilli and other structures, and contains enzyme system related to intestinal brush border epithelium.
The cryopreserved Caco-2 cells were thawed in 37° C. water bath. After resuscitation, the cells were added into DMEM medium containing 10% FBS, and cultured in an incubator with 37° C., 5% CO2 and 90% relative humidity. The culture medium was changed every other day. After 1-2 days of growth, the cells were digested with 0.25% trypsin-EDTA (0.2%) mixed digestive solution at 37° C. and passaged in a certain proportion. The cell generation used in the experiments was 40-60 passages.
When cells reached 80% confluency, they were digested and suspended in complete medium and seeded on Millicell plate at 1×10^6 cells·ml^−1. After that, the culture medium was changed once every 2 days and after 1 week, was changed once every 1 day. After 5 days of culture, the resistance value reaches plateau (>200 Ω·cm^2), which can be then used for membrane permeability experiment.
The compound was diluted to 5 μmol·L^−1 by HBSS. Before experiments, the culture medium in each well was discarded, washed twice with HBSS solution at 37° C., and then incubated in a 37° C. incubator. […] The emission wavelength was set at 430 nm and the excitation wavelength was set at 530 nm.
Before experiments, Millicell inoculated with cells was soaked in HBSS solution at 37° C. for an appropriate time period, and the Millicell was washed slightly to remove the attachment on the cell surface. The permeability from cavity surface to basal surface: 0.35 ml HBSS solution containing drug was added to the top side (AP) and 1.2 ml blank HBSS solution was added to the bottom side (BL). The Millicell was incubated while shaking at 50 r·min^−1 at 37° C., a 50 μL sample was taken in the lower layer at 0, 30, 90 and 120 min, and a same volume of blank HBSS solution as added back. 3 holes were repeated for each concentration. 50 μL internal standard solution and 350 μL ethyl acetate were added to the sample, which was shaken and mixed, centrifuged at 12000 rpm for 5 min. 300 μL of supernatant was taken out, dried by evaporation, and re-dissolved in 50 μL acetonitrile. 10 μL sample was taken out for testing. For the permeability from the base surface to the cavity surface, the drug was added to the bottom side (BL), and the blank HBSS solution was added to the top side (AP). The following steps are the same as the permeability test operation from the cavity surface to the base surface.
The apparent permeability coefficient (Papp) of drugs reflects the ability of drugs to pass through monolayer cells and the speed and degree of drug absorption. It can be calculated by the following formula: […]
Herein, ΔQ is the amount of drug penetration during the time period of Δt, A is the cell surface area, which is the area of supporting membrane (0.6 cm^2) in this model, and Co is the initial concentration. The unit of Papp is usually expressed in cm/h (cm·h^−1) or cm/s (cm·s^−1).
LC/MS was used for testing. The standard curve ([…]-10000 nM) was used to quantify the concentration of each sample.
(In general: Caco-2 cells form a polarised layer with tight junctions and transporters.)

≈ marks a conversion by molar mass, not a printed value. Like-named read-outs stand apart in the source and are kept apart here.

With `COc1cccc2c1c(NS(=O)(=O)c1ccc(Cl)s1)nn2Cc1cccc(CNC(=O)C(C)(C)O)c1.[Na]` [Compound of formula II, N-[(3-{[3-{[(5-chloro-2-thienyl)sulfonyl]amino}-4-(methoxy)-1H-indazole-1-yl]methyl}phenyl)methyl]-2-hydroxy-2-methylpropionamide sodium], in series [1] (water, 25° C. ± 2° C., visual dissolution within 30 minutes), the “Solubility in water under 25° C. ± 2° C.” value worked out at 500 mg/mL. Besides, the “IC50, times higher than that of compound 6” value in series [2] (relative to compound 6, same experimental conditions) amounted to 6 times. Further, the “absorption classification from Papp” value in the series on Caco-2 cells (Caco-2, Papp>2×10^−6 = good-absorption drug) is “easy-to-absorb compounds”. The “Papp (apparent permeability coefficient)” value in the series with Caco-2 cells (Caco-2 monolayer, direction not given, sodium) was 68.82 ×10^−6.
For the molecule `COc1cccc2c1c(NS(=O)(=O)c1ccc(Cl)s1)nn2Cc1cccc(CNC(=O)C(C)(C)O)c1` [Compound of formula III, N-[(3-{[3-{[(5-chloro-2-thienyl)sulfonyl]amino}-4-(methoxy)-1H-indazole-1-yl]methyl}phenyl)methyl]-2-hydroxy-2-methylpropionamide potassium], in series [1], the “Solubility in water under 25° C. ± 2° C.” value worked out at 40 mg/mL and the “solubility, times higher than that of compound 6” value is 2000-25000 times. Further, the “IC50, times higher than that of compound 6” value in series [2] is 210 times. For the same molecule, in the series on Caco-2 cells (Caco-2), the “absorption classification from Papp” value is given as “easy-to-absorb compounds” and the “permeability, times higher than compound 6” value is 530-780 times.
As to `COc1cccc2c1c(NS(=O)(=O)c1ccc(Cl)s1)nn2Cc1cccc(CNC(=O)C(C)(C)O)c1` [Compound 6, N-[(3-{[3-{[(5-chloro-2-thienyl)sulfonyl]amino}-4-(methoxy)-1H-indazole-1-yl]methyl}phenyl)methyl]-2-hydroxy-2-methylpropionamide, reference compound], the “Solubility in water under 25° C. ± 2° C.” value in series [1] came out at 0.02 mg/mL (≈ 36.4 µM). The “absorption classification from Papp” value with Caco-2 cells (Caco-2) is “difficult-to-absorb compound”. In addition, the “Papp (apparent permeability coefficient)” value with Caco-2 cells (human, Caco-2) is reported as 0.13 ×10^−6.
